{"source": "patent EP0266549A1", "about": "“Cinnamyl amines, process for their preparation and pharmaceutical compositions containing them” (BOEHRINGER MANNHEIM ITALIA S.P.A., priority 1986, dated 1988)", "origin": "cited, not measured here", "conditions": "in vitro; Arch. lnt. Pharmacology, 272, 283, 1984; cited from earlier work", "note": "Counter-ions that a name gives are not always drawn.", "data": [{"compound": "Fc1ccc(C(c2ccc(F)cc2)N2CCN(C/C=C/c3ccccc3)CC2)cc1", "note": "[Flunarizine HCl]", "values": [{"measurement": "activity as \"radical scavenger\"", "value": "very active"}]}]}
